Experimental data taken from US8653023B1, “Dual beneficial effect of dopamine enhancing and neuroprotective actions of PKC delta inhibitors for treatment of Parkinson's disease” (Iowa State University Research Foundation, Inc., priority 2006, dated 2014).
Like-named read-outs stand apart in the source and are kept apart here.

Experiments:
[1] = tested on: MPTP-treated C57 black mice; assay: TH protein level in SN of MPTP-treated mice (Western blot); assay type: in vivo; conditions: all doses of rottlerin, MPTP 30 mg/kg 5 days
Experimental: Six to 8-week-old […] mice weighing 30 g were housed in standard conditions: constant temperature (22±1° C.), humidity (relative, 30%) and a 12-h light/dark cycle, and were allowed free access to food and water. The animals and protocol procedures were approved and supervised by the Committee on Animal Care (COAC) at the Iowa State University. Rottlerin was dissolved in 1% dimethyl sulfoxide (DMSO) and was administered intraperitoneally at various doses. An equal volume of DMSO was given to controls. Rottlerin and DMSO administrations were started 24 h before the injections of the MPTP and continued for 5 days in the MPTP model. In the chronic regimens of MPTP administration, MPTP in phosphate-buffered saline (PBS) was injected intraperitoneally at doses of 30 mg/kg, once a day. Mice were sacrificed 2 days after the MPTP injections, and the striata were dissected for catecholamine analysis. […]
brain lysates containing equal amounts of protein were loaded in each lane and separated on a 10-12% SDS-PAGE gel as described previously (Kaul, Kanthasamy et al. 2003). […] Secondary antibody-bound proteins were detected using Amersham's ECL chemiluminescence kit. […] Western blot images were captured with a Kodak […] imaging system and data were analyzed using 1D Kodak imaging analysis software.

[2] = tested on: dopaminergic N27 cells; conditions: cited from earlier work
[3] = tested on: macrophages; conditions: pretreatment, cited from earlier work
[4] = tested on: MPTP-treated C57 black mice; assay: MPTP-induced striatal dopamine depletion (HPLC-EC); assay type: in vivo
Experimental: Six to 8-week-old […] mice weighing 30 g were housed in standard conditions: constant temperature (22±1° C.), humidity (relative, 30%) and a 12-h light/dark cycle, and were allowed free access to food and water. The animals and protocol procedures were approved and supervised by the Committee on Animal Care (COAC) at the Iowa State University. Rottlerin was dissolved in 1% dimethyl sulfoxide (DMSO) and was administered intraperitoneally at various doses. An equal volume of DMSO was given to controls. Rottlerin and DMSO administrations were started 24 h before the injections of the MPTP and continued for 5 days in the MPTP model. In the chronic regimens of MPTP administration, MPTP in phosphate-buffered saline (PBS) was injected intraperitoneally at doses of 30 mg/kg, once a day. Mice were sacrificed 2 days after the MPTP injections, and the striata were dissected for catecholamine analysis. Additionally, rottlerin alone (0.3-20 mg/kg) was administered via intraperitoneally or orally and then brain tissues were subjected to neurochemical analyses (FIG. 8). The mesencephalons were fixed in 4% paraformaldehyde for 5 days for tyrosine hydroxylase (TH) immunostaining.
DA and DOPAC levels in brain striatal tissues were determined by high-performance liquid chromatography with electrochemical detection (HPLC-EC); samples were prepared as described previously (Kitazawa, Anantharam et al. 2001). Briefly, neurotransmitters were extracted from samples using 0.1M perchloric acid containing 0.05% Na2EDTA and 0.1% Na2S2O5. The extracts were filtered in 0.22 micron spin tubes and 20 μl of the samples was loaded for analysis. DA and DOPAC were separated isocratically by a reversed-phase column with a flow rate of 0.7 ml/min. An HPLC system (ESA Inc., Bedford, Mass.) with an ESA automatic sampler (model 542) was used for these experiments. The electrochemical detection (EC) system consisted of an ESA coulochem model 5100A with a microanalysis cell model 5014A and a guard cell model 5020 (ESA Inc., Bedford, Mass.). The DA and DOPAC levels were measured as pg/mg protein and expressed as percent of control.

[5] = target: PKCδ (Homo sapiens, UniProt Q05655); conditions: cited from earlier work
Chain of PKCδ (Q05655 whole entry): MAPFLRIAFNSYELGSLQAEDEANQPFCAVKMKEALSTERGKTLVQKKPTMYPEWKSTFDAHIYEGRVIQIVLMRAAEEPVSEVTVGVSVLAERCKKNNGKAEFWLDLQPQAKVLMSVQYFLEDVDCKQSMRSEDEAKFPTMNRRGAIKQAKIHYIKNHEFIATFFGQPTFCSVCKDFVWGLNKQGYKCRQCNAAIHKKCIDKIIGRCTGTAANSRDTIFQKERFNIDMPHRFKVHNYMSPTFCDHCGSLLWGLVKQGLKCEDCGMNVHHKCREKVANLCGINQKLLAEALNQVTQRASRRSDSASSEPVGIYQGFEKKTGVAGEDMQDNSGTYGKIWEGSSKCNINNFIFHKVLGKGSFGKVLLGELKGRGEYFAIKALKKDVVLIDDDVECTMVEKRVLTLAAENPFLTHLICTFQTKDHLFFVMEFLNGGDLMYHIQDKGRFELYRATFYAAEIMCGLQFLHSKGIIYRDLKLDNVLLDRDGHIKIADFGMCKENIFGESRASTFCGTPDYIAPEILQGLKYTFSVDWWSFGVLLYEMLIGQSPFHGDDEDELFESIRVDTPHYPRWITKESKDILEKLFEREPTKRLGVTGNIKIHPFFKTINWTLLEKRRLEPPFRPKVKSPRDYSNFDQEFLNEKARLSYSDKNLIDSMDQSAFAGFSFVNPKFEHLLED

[6] = tested on: PKA; conditions: cited from earlier work
[7] = tested on: cells; conditions: cited from earlier work
[8] = tested on: PKCε, ζ, or η; conditions: cited from earlier work
[9] = tested on: tyrosine hydroxylase (TH); assay: TH phosphorylation in N27 cells (Western blot, immunofluorescence); assay type: cell-based, rat; conditions: N27 cells
Experimental: PC12 cells, differentiated N27 dopaminergic cells and primary mesencephalic neurons were exposed to 1-10 μM rottlerin for the duration of the experiment. DMSO (0.01%) was used as vehicle control. PKCδ-DN- and Lac Z-expressing N27 cells were only treated with 0.01% DMSO. […] Untreated or vehicle treated cells were used as control samples.
Cell and brain lysates containing equal amounts of protein were loaded in each lane and separated on a 10-12% SDS-PAGE gel as described previously (Kaul et al., 2003). After the separation, proteins were transferred to nitrocellulose membrane, and nonspecific binding sites were blocked by treating with 5% nonfat dry milk powder. The membranes were then treated with primary antibodies directed against PKCδ (rabbit polyclonal or mouse monoclonal, 1:2000 dilution), TH (rabbit polyclonal or mouse monoclonal, 1:1000), phospho TH-ser40 (rabbit polyclonal, 1:1000), phospho TH-ser31 TH (rabbit polyclonal, 1:1000), or PP2A (mouse monoclonal, 1:1000). The primary antibody treatments were followed by treatment with secondary HRP-conjugated anti-rabbit or anti-mouse IgG (1:2000) for 1 hr at RT. Secondary antibody-bound proteins were detected using Amersham's ECL chemiluminescence kit. To confirm equal protein loading, blots were reprobed with a β-actin antibody (1:5000 dilution). Western blot images were captured with a Kodak 2000 MM imaging system and data were analyzed using 1D Kodak imaging analysis software.
Immunostaining of PKCδ, TH, Ser40 P-TH and Ser31 P-TH was performed in PC12, N27 and primary mesencephalic neurons. Cells were grown on poly-L-Lysine-coated glass cover slips. After treatment, the cells were fixed with 4% paraformaldehyde and processed for immunohistochemical staining. First, non-specific sites were blocked with 5% normal goat serum containing 0.4% BSA and 0.2% Triton-X 100 in PBS for 20 min. Cells were then incubated with antibodies directed against PKCδ (1:500 dilution), TH (1:500 dilution), and P-THSer40 (1:500 dilution) overnight at 4° C. followed by incubation with either Alexa 488-conjugated (green, 1:1000) or Cy3-conjugated (red, 1:1000) secondary antibody for 1 hr at RT. Secondary antibody treatments were followed by incubation with Hoechst 33342 (10 μg/ml) for 3 min at room temperature to stain the nucleus. Then the coverslips containing stained cells were washed with PBS, mounted on a slide, and viewed under a Nikon inverted fluorescence microscope (Model TE-2000U); images were captured with a SPOT digital camera (Diagnostic Instruments, Sterling Heights, Mich.).

CC(=O)c1c(O)c(C)c(O)c(Cc2c(O)c3c(c(C(=O)/C=C/c4ccccc4)c2O)OC(C)(C)C=C3)c1O [rottlerin]
TH protein level in SN [1]: attenuate loss of TH protein
H2O2 and MPP+-induced apoptotic cell death (genistein: also PKCδ cleavage, kinase activation) [2]: dramatically inhibited
suppression of UV-B-induced DNA fragmentation ([3]; 1 μM): approximately 30%
suppression of UV-B-induced DNA fragmentation ([3]; 10 μM): ~50%
protection against dopamine loss induced by MPTP toxicity in striatum ([4]; 20 mg/kg rottlerin): 50%
MPTP-induced decrease in dopamine and metabolite levels ([4]; oral 20 mg/kg and i.p. 3, 7 and 10 mg/kg rottlerin, dose-dependent): significantly antagonized
dopamine level in striatum ([4]; rottlerin 20 mg/kg + MPTP 30 mg/kg for 5 days): 112.8±25.32 pg/mg tissue weight
IC50 [5]: 3 to 6 µM
inhibition [6]: weak inhibitor
asbestos-induced apoptosis [7]: inhibited
fold more potent on PKCδ than on PKCε, ζ, or η [8]: 13- to 33 fold
level of total TH [9]: unaltered
